# Test results published in patent US8541464B2, “Treatment of atrial fibrillation” (HUYA Biosciences International LLC, priority 2009, dated 2013).
# Several values for one entry are separate records, joined by “and”; a condition that tells them apart may be missing. Equal values may be shown once.
# Key:
# [1] = Plasma concentration in minipig cardiovascular safety study; assay type: in vivo
# Description: A Swan Ganz (thermodilution catheter) was inserted into the right femoral vein via phlebotomy and advanced into the pulmonary artery for cardiac output measurements. A catheter was inserted in the left femoral artery via an arteriotomy for blood gas determination. Another catheter was inserted in the left femoral vein for blood collection for toxicokinetic evaluation. Finally, an incision was also performed on the left side of the neck to expose the left carotid artery and an electronic dual pressure sensor catheter (Millar) was placed via arteriotomy and advanced into the left ventricle. The catheter was positioned to simultaneously collect left ventricle blood pressure measurements as well as aortic pressure. In addition, a temporary catheter was placed in any of the cephalic veins for administration of Lactated Ringers at 10 mL/kg/hr throughout the course of the experiment.
# Following surgical preparation, hemodynamic and electrocardiographic parameters were allowed to stabilize for at least 15 minutes. The vehicle control and test article were then administered, and hemodynamic, electrocardiographic, histamine and PK parameters were monitored.
# Peak plasma concentrations of sulcardine sulfate increased with increasing dose. […]
# post-MI beagle dogs = assay: Hemodynamic effects in anesthetized post-MI sudden cardiac death model; assay type: in vivo, beagle dog; settings: 15 mg/kg
# Description: A hemodynamic effects study of sulcardine sulfate in an anesthetized post-MI sudden cardiac death model study was also performed. The study population consisted of ten purpose-bred, female beagle dogs, weighing 10.0-12.0 Kg. The animals had left ventricular wall ischemic injury induced by a 90-minute occlusion of the left anterior descending coronary artery followed by reperfusion. Five animals were treated with sulcardine sulfate (15 mg/kg) infused intravenously over 10 minutes, and the remaining five animals were vehicle dogs treated with 0.9% sodium chloride solution (placebo). Lowest mean arterial blood pressure was measured every 15 minutes for a total period of 120 minutes after treatment.
# dogs = assay: Heart rate and blood pressure during slow (45 min) infusion in dogs; assay type: in vivo, dog; settings: for Heart rate / Mean blood pressure: 14 mg/kg i.v. over 45 minutes
# Description: Three additional animals received sulcardine sulfate (14 mg/kg, i.v.) infused over 45 minutes. The purpose of this study was to investigate whether or not a slow infusion (45 min) of sulcardine sulfate would affect heart rate and blood pressure. […] The change in blood pressure was modest, most likely due to a compensatory increase in the resting heart rate.
# [2] = Plasma PK in Beagle dog after oral and IV administration; assay type: in vivo; set-up: Tmax: unit not given here
# Description: In dogs an PO dose of 40 mg/kg (efficacious oral dose range) gives peak levels of 2.1 μg/mL (4.6 μM). […] These PK data and extrapolated conclusion are in agreement with the CV safety study, where PK after 15 minute infusion was conducted. In general, the mean concentrations peaked at the 10-minute time point, post-initiation, for each 15-minute infusion of sulcardine sulfate at 10 and 30 mg/kg (efficacious dose against ventricular arrhythmia). The mean peak plasma concentrations were 1.8 (4.2 μM) and 11.2 μg/mL (24.6 μM), respectively (data not shown). These values were well below in the case of the lower dose to barely reaching some but not all atrial cell patch clamp IC50s on various ion channels, although still associated with significant drops in mean arterial pressure, tachycardia, QT interval prolongation and changes in ventricular contractility were observed.
# conscious beagle dogs = assay: Hemodynamics and plasma histamine in conscious beagle dogs, 10 minute infusions of increasing doses; assay type: in vivo, beagle dog; settings: for Heart rate / Histamine Concentration / Mean blood pressure: 10 minute infusion
# Description: The effect of sulcardine sulfate intravenously administered over a 10 minute infusion on the mean blood pressure, heart rate, and plasma histamine concentration of conscious beagle dogs was performed. Three male and female purpose-bred beagles, weighing 10.0-12.7 Kg were intravenously administered repeated increasing doses of sulcardine sulfate (cumulative dose 1-44 mg/kg) at 15 minute intervals following a 10 minute infusion of the prior dose. The administered doses were as follows: 1 mg/kg, 3 mg/kg, 10 mg/kg, and 30 mg/kg sulcardine sulfate. Heart rate, mean arterial blood pressure, and histamine concentrations were measured (Table 3) at 10 minute intervals after completion of each drug infusion period.
# anesthetized dogs = assay: Cardiovascular safety in anesthetized dogs, escalating 15-minute IV infusions (hemodynamics, histamine, ECG); assay type: in vivo, dog
# Description: (§1) Dogs were administered morphine (2 mg/kg subcutaneously) approximately 10-19 minutes prior to administration of anesthesia. Dogs were anesthetized with 1% α-chloralose (100 mg/kg intravenous), followed by a constant infusion of α-chloralose (35-75 mg/kg/hr, IV). Two healthy female dogs were administered escalating doses of sulcardine sulfate intravenously over 15 minutes in an acetate buffer system at dose levels of 10, 30 and 90-mg/kg with dose administrations separated by 60 minutes. Following drug administration, dogs were evaluated for ventricular, pulmonary and peripheral hemodynamic changes using Swanz Ganz and femoral catheters as well as by monitoring of blood oxygen saturation, test article blood level, body temperature, blood biochemistries, hematologies, ECG, and histamine.
# as §1, with “90 mg/kg” for “90-mg/kg”, “minutes. Another set of two dogs received test article after pre-treatment with diphenhydramine (1 mg/kg administered 30 minutes prior to start of test article infusion).” for “minutes.”, “biochemistry, hematology,” for “biochemistries, hematologies,”, “histamine levels.” for “histamine.”
substance,measurement,setting,value
sulcardine sulfate,mean peak plasma concentration,"[1]; 90 mg/kg, 15 minute infusion",25.6 ug/mL and 56.3 μM
same,Cmax,"[1]; minipigs, read-out: Cmax that led to observed side effects such as hypotension",13.6 µM
same,time after completion of infusion by which arterial blood pressure was not different from baseline or placebo,post-MI beagle dogs,≤ 50 min
same,mean arterial blood pressure compared to baseline values,"post-MI beagle dogs; at fifteen, thirty, and forty-five minutes after completing a 10 minute infusion, P<0.05",significantly lower
same,Heart rate,dogs; time 10 minutes,95.0 ± 7.6 bpm
same,Mean blood pressure,dogs; time 10 minutes,165.3 ± 0.3 mmHg
same,Heart rate,dogs; time 25 minutes,115.0 ± 5.8 bpm
same,Mean blood pressure,dogs; time 25 minutes,167.7 ± 9.8 mmHg
same,Heart rate,dogs; time 40 minutes,115.0 ± 5.0 bpm
same,Mean blood pressure,dogs; time 40 minutes,162.7 ± 11.3 mmHg
same,Heart rate,dogs; time 55 minutes,103.3 ± 6.0 bpm
same,Mean blood pressure,dogs; time 55 minutes,152.0 ± 16.2 mmHg
same,effect of slow intravenous administration on resting blood pressure and/or heart rate,dogs; total intravenous dose of 14 mg/kg over 45 min,did not result in a marked change in resting blood pressure and/or heart rate
same,K10,[2]; 40 mg/kg po,0.1748 ± 0.0306 h⁻¹
same,Tmax,[2]; 40 mg/kg po,1.508 ± 0.4160
same,peak levels,"[2]; dogs, PO 40 mg/kg, 40 mg/kg",2.1 μg/mL and 4.6 μM
same,Heart rate,conscious beagle dogs; 1 mg/kg,90.00 ± 12.58 bpm
same,Histamine Concentration,conscious beagle dogs; 1 mg/kg,93.95 ± 24.11 ng/mL
same,Mean blood pressure,conscious beagle dogs; 1 mg/kg,166.7 ± 10.99 mmHg
same,Heart rate,conscious beagle dogs; 3 mg/kg,110.00 ± 10.41 bpm
same,Histamine Concentration,conscious beagle dogs; 3 mg/kg,182.5 ± 46.11 ng/mL
same,Mean blood pressure,conscious beagle dogs; 3 mg/kg,170.7 ± 7.36 mmHg
same,Heart rate,conscious beagle dogs; 10 mg/kg,111.7 ± 17.64 bpm
same,Histamine Concentration,conscious beagle dogs; 10 mg/kg,252.6 ± 85.78 ng/mL
same,Mean blood pressure,conscious beagle dogs; 10 mg/kg,101.0 ± 28.45 mmHg
same,Heart rate,conscious beagle dogs; 30 mg/kg,111.7 + 6.01 bpm
same,Histamine Concentration,conscious beagle dogs; 30 mg/kg,465.9 ± 27.75 ng/mL
same,Mean blood pressure,conscious beagle dogs; 30 mg/kg,69.7 ± 14.7 mmHg
same,observations during intravenous administration over 10 minutes,conscious beagle dogs; with erythemitous flare of face and ears and urticaria (hives),dose-dependent decrease in arterial blood pressure
same,mean arterial pressure initial increase,"anesthetized dogs; 10 mg/kg, one animal out of two, maximum at 10 minutes post start of dosing",+66%
same,QTc prolongation,"anesthetized dogs; 10 mg/kg, within 5 minutes of initiation",≤ 20 ms
same,maximum histamine plasma concentration,"anesthetized dogs; 10 mg/kg, at 5 min and 10 min post-Rx respectively",1874 nM and 1919 nM
same,maximum histamine plasma concentration,anesthetized dogs; 30 mg/kg,251 nM and 183 nM
same,QTc prolongation,"anesthetized dogs; 30 mg/kg infusion, cumulative",approximately 35 msec
same,maximum histamine plasma concentration,anesthetized dogs; 90 mg/kg,99 nM and 64 nM
same,mortality,"anesthetized dogs; 90 mg/kg, final 15-minute infusion",all animals succumbed
same,QRS widening,"anesthetized dogs; all dose levels (10, 30, 90 mg/kg)",QRS widening was also noted at all dose levels
